Experimental data published in PMC9484059, “Integrated multi-omics analysis and microbial recombinant protein system reveal hydroxylation and glycosylation involving nevadensin biosynthesis in Lysionotus pauciflorus” (Microbial Cell Factories, 2022).

Tested on: T1, LpUGT95
T1 construct: cloned from cDNA into pMAL-c2x (MBP fusion vector), expressed in E. coli, purified recombinant
Test: UPLC product formation, Hyper […] fit
Type: biochemical, Lysionotus pauciflorus
Details: 2 mM UDP-glucose as sugar donor, 10 mM DTT, 50 mM Tris-HCl pH 7.4, 30 °C, 30 min

## COc1ccc(-c2cc(=O)c3c(O)c(OC)c(O)c(OC)c3o2)cc1 [nevadensin, 5,7-dihydroxy-6,8,4'-trimethoxyflavone]
  Km: 596 µM
